# Tested on: Runx2
# Assay: Runx2 activity, 6xOSE2-Luc luciferase reporter in transfected C2C12 cells
# Format: cell-based, Mouse
# Details: Mus musculus, 24 hrs, read-out: luciferase activity relative to control set as 1
# Method: Mouse premyoblast cell (C2C12 cell) was transfected using receptor vector 6xOSE2-Luc in order to investigate the activity of the amide compound of the present invention on Runx2.
# Specifically, the receptor vector 6xOSE2-Luc was prepared by inserting an artificial promoter linked by six tandem copies of the OSE2 (osteoblast specific element-2) into vector pGL3 (Promega; Madison, Wis., U.S.A.), and then, cloned into the C2C12 cell to be transfected (Kim et al., Journal of Cellular Biochemistry, 91: 1239-1247, 2004). The OSE2 is the binding site of Runx2 in the promoter of osteocalcin which is a bone marker.
# C2C12 cells (5,000 cells/well) were plated onto 96-well plates using 10% FBS (fetal bovine serum; Hyclone)-containing DMEM (Dulbecco's Modified Eagle's Medium), the medium was replaced with 5% FBS-containing DMEM after 24 hrs, and treated with each of the amide compounds obtained in Examples 1 to 94 at various concentrations of 2.5 μM, 5.0 μM, 10 μM, and 20 μM. As a control, dimethyl sulfoxide (DMSO) vehicle was applied to the cell in an amount same as that of the amide compound. After 24 hrs, the luciferase activity in the cell lysate was measured by using Dual-Luciferase Reporter Assay System (Promega). The luciferase activity of the amide compound of the present invention was calculated as a value relative to that observed for the control which was set as 1.
Structure (SMILES),fold induction at 2.5 µM,fold induction at 5 µM,fold induction at 10 µM,fold induction at 20 µM
"O=C(CCCCCN1Cc2cc(-c3ccc(C(F)(F)F)cc3)ccc2C1=O)NO [Example 55, 6-(5-(4-(trifluoromethyl)phenyl)-1-oxoisoindolin-2-yl)-N-hydroxyhexanamide]",2.7,3.7,5.5,13.3
"COc1cc2c(c(-c3ccc(C(F)(F)F)cc3)c1OC)CN(CCCCCC(=O)Nc1ccccc1N)C2=O [Example 35, N-(2-aminophenyl)-6-(4-(4-(trifluoromethyl)phenyl)-5,6-dimethoxy-1-oxoisoindolin-2-yl)hexanamide]",2.9,6.7,14.2,22.3
"Nc1ccccc1NC(=O)c1ccc(CN2Cc3cc(-c4cccnc4)ccc3C2=O)cc1 [Example 61, N-(2-aminophenyl)-4-((1-oxo-5-(pyridin-3-yl)isoindolin-2-yl)methyl)benzamide]",9.6,10.6,14.2,15.6
"COc1ccc(-c2ccc3c(c2)CN(Cc2ccc(C(=O)Nc4ccccc4N)cc2)C3=O)cc1OC [Example 64, N-(2-aminophenyl)-4-((5-(3,4-dimethoxyphenyl)-1-oxoisoindolin-2-yl)methyl)benzamide]",11.3,10.7,10.1,9.5
"COc1cc2c(c(-c3cccnc3)c1OC)CN(Cc1ccc(C(=O)Nc3cc(-c4cccs4)ccc3N)cc1)C2=O [Example 48, N-(2-amino-5-(thiophen-2-yl)phenyl)-4-((5,6-dimethoxy-1-oxo-4-(pyridin-3-yl)isoindolin-2-yl)methyl)benzamide]",3.7,7.2,11.4,14.3
"O=C(CCCCCN1Cc2cc(-c3cc(F)cc(F)c3)ccc2C1=O)NO [Example 53, 6-(5-(3,5-difluorophenyl)-1-oxoisoindolin-2-yl)-N-hydroxyhexanamide]",1.7,3,5.6,13.3
"O=C(CCCCCN1Cc2cc(-c3cccnc3)ccc2C1=O)NO [Example 54, N-hydroxy-6-(1-oxo-5-(pyridin-3-yl)isoindolin-2-yl)hexanamide]",1.5,2.9,8.9,19.8
"Nc1ccccc1NC(=O)c1ccc(CN2Cc3cc(-c4cc(F)cc(F)c4)ccc3C2=O)cc1 [Example 60, N-(2-aminophenyl)-4-((5-(3,5-difluorophenyl)-1-oxoisoindolin-2-yl)methyl)benzamide]",5.4,5.9,7,8.6
"COc1cc2c(c(Br)c1OC)CN(Cc1ccc(C(=O)Nc3ccccc3N)cc1)C2=O [Example 1, N-(2-aminophenyl)-4-((4-bromo-5,6-dimethoxy-1-oxoisoindolin-2-yl)methyl)benzamide]",21.4,26.2,19.9,15.8
"COc1ccc(-c2ccc(C(=O)NCCCCCC(=O)Nc3ccccc3N)cc2C)c(OC)c1 [Example 87, N-(5-(2-aminophenylcarbamoyl)pentyl)-3-methyl-4-(2,4-dimethoxyphenyl)-benzamide]",1.7,2.6,5.6,8.5
"Cc1cc(C)cc(-c2ccc(C(=O)NCCCCCC(=O)Nc3ccccc3N)cc2C)c1 [Example 91, N-(5-(2-aminophenylcarbamoyl)pentyl)-3-methyl-4-(3,5-dimethylphenyl)-benzamide]",1.1,1.5,2.9,3.9
"COc1cc2c(c(-c3cc(F)cc(F)c3)c1OC)CN(CCCCCC(=O)Nc1ccccc1N)C2=O [Example 34, N-(2-aminophenyl)-6-(4-(3,5-difluorophenyl)-5,6-dimethoxy-1-oxoisoindolin-2-yl)hexanamide]",3.7,7.4,18,23
"COc1ccc(-c2cccc3c2CN(Cc2ccc(C(=O)Nc4ccccc4N)cc2)C3=O)cc1OC [Example 16, N-(2-aminophenyl)-4-((4-(3,4-dimethoxyphenyl)-1-oxoisoindolin-2-yl)methyl)benzamide]",12.2,12.3,8.5,9.2
"Nc1ccccc1NC(=O)c1ccc(CN2Cc3c(cccc3-c3ccccc3)C2=O)cc1 [Example 11, N-(2-aminophenyl)-4-((1-oxo-4-phenylisoindolin-2-yl)methyl)benzamide]",8.3,12.3,15.6,16.8
"Cc1cc(C)cc(-c2ccc3c(c2)CN(CCCCCC(=O)NO)C3=O)c1 [Example 52, N-hydroxy-6-(5-(3,5-dimethylphenyl)-1-oxoisoindolin-2-yl)hexanamide]",2.4,4.7,12.6,20.4
"Cc1c(Br)cccc1C(=O)NCCCCCC(=O)Nc1ccccc1N [Example 80, N-(5-(2-aminophenylcarbamoyl)pentyl)-3-bromo-2-methylbenzamide]",0.9,1.8,2.7,5.4
"COc1ccc(-c2ccc3c(c2)CN(CCCCCC(=O)NO)C3=O)c(OC)c1 [Example 50, N-hydroxy-6-(5-(2,4-dimethoxyphenyl)-1-oxoisoindolin-2-yl)hexanamide]",1.9,5,22.1,42.7
"Cc1c(C(=O)NCCCCCC(=O)NO)cccc1-c1ccccc1 [Example 92, N-(5-(hydroxycarbamoyl)pentyl)-2-methyl-3-phenylbenzamide]",4.1,8.8,12.4,11.5
"CC(=O)Nc1cccc(-c2cccc3c2CN(Cc2ccc(C(=O)Nc4ccccc4N)cc2)C3=O)c1 [Example 23, N-(2-aminophenyl)-4-[4-(3-acetamidophenyl)-1-oxo-2,3-dihydro-1H-isoindol-2-yl]methylbenzamide]",3.9,5.1,18.1,33.2
"Cc1cc(C(=O)NCCCCCC(=O)Nc2ccccc2N)ccc1-c1cccnc1 [Example 88, N-(5-(2-aminophenylcarbamoyl)pentyl)-3-methyl-4-(3-pyridinyl)-benzamide]",6,16.8,28.1,41.2
"N#Cc1ccc(-c2cccc3c2CN(Cc2ccc(C(=O)Nc4ccccc4N)cc2)C3=O)cc1 [Example 20, N-(2-aminophenyl)-4-[4-(4-cyanophenyl)-1-oxo-2,3-dihydro-1H-isoindol-2-yl]methylbenzamide]",16.2,19.4,19.3,16.8
"Nc1ccccc1NC(=O)CCCCCN1Cc2c(cccc2-c2cccnc2)C1=O [Example 38, N-(2-aminophenyl)-6-(1-oxo-4-(pyridin-3-yl)isoindolin-2-yl)hexanamide]",3,8.2,23,43.3
"Nc1ccccc1NC(=O)c1ccc(CN2Cc3c(cccc3-c3ccc(C(F)(F)F)cc3)C2=O)cc1 [Example 13, N-(2-aminophenyl)-4-((4-(4-(trifluoromethyl)phenyl)-1-oxoisoindolin-2-yl)methyl)benzamide]",7.9,8,9.3,7.2
"Nc1ccccc1NC(=O)c1ccc(CN2Cc3cc(Br)ccc3C2=O)cc1 [Example 56, N-(2-aminophenyl)-4-((5-bromo-1-oxoisoindolin-2-yl)methyl)benzamide]",1.1,1.1,1.1,1.1
"COc1ccc(-c2cccc3c2CN(Cc2ccc(C(=O)Nc4ccccc4N)cc2)C3=O)cc1F [Example 24, N-(2-aminophenyl)-4-((4-(3-fluoro-4-methoxyphenyl)-1-oxoisoindolin-2-yl)methyl)benzamide]",11.8,17.3,19.6,21.2
"Cc1ccc(-c2cccc3c2CN(Cc2ccc(C(=O)Nc4ccccc4N)cc2)C3=O)cc1F [Example 27, N-(2-aminophenyl)-4-((4-(3-fluoro-4-methylphenyl)-1-oxoisoindolin-2-yl)methyl)benzamide]",9.9,17.5,22.5,20.3

# — patent US8716326B2, “Isoindolinone derivatives, preparation method thereof and a pharmaceutical composition comprising same” (Korea Research Institute of Chemical Technology, priority 2009, dated 2014)
